The values that follow come from article PMC6821926, “Diaminoquinazoline MMV675968 from Pathogen Box inhibits Acinetobacter baumannii growth through targeting of dihydrofolate reductase” (Scientific Reports, 2019).

Holding throughout (type): biochemical
The target of assay [1] is T1, human DHFR (hDHFR) (Homo sapiens, UniProt P00374).
T1 construct: hDHFR (from pL0035) expressed from pET15b in E. coli BL21(DE3)
T1 sequence (P00374 1-187): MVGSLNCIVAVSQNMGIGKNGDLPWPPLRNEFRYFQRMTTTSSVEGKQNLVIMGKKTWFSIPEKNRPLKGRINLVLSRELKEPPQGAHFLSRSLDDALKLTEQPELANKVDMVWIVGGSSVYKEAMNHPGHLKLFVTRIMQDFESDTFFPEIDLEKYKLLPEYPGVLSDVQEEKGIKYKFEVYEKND
Kind of assay: DHFR activity assay (A340) in lysate of E. coli BL21(DE3) overexpressing hDHFR.

Assay [2] deals with T2, A. baumannii dihydrofolate reductase (AbDHFR) (Acinetobacter baumannii, UniProt A0A098SJI9).
T2 construct: gene folA; AbDHFR expressed from pET15b in E. coli BL21(DE3)
T2 sequence (A0A098SJI9 entry or part of it): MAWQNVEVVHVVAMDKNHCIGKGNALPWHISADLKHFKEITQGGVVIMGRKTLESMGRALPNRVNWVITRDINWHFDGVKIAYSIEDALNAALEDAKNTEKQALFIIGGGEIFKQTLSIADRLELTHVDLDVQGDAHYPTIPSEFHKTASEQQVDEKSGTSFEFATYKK
Kind of assay: DHFR activity assay (A340) in lysate of E. coli BL21(DE3) overexpressing AbDHFR; also E. coli surrogate growth and DHFR activity in treated A. baumannii.

In assay [3] the target is T2, A. baumannii dihydrofolate reductase (AbDHFR). Kind of assay: DHFR activity assay (A340) in lysate of E. coli BL21(DE3) overexpressing AbDHFR.

The IC50 is the concentration needed to halve the response being measured. A lower IC50 goes with inhibition by little substance. On to `COc1ccc(OC)c(NCc2ccc3nc(N)nc(N)c3c2Cl)c1` [MMV675968], for which the IC50 in assay [1] came out at 492 nM; in assay [2], 8.5 nM.

Regarding `CCc1nc(N)nc(N)c1-c1ccc(Cl)cc1` [PYR, pyrimethamine], half-maximal inhibition in assay [3] (IC50) required 81.7 nM.
